Reference: the supplement of paper PMC7017272
± gives the standard deviation of the averaged measurements.

Columns and labels:
Settings in all cases: treatment time: 3 days
[1] = tested on: UT-SCC-42B; assay: drug sensitivity score (DSS); higher = more sensitive; extreme values may be limits of the assay
In short: (§1)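 Viability was read with CellTiter-Glo 2.0 luminescence and scaled against vehicle (0.1% DMSO) and cell-killing control wells. The assay used HPV-negative HNSCC cell lines at 500 cells/well in 384-well plates, grown on plastic, on Matrigel or Myogel coatings (500 µg/mL), or embedded in Matrigel or Myogel plus rat collagen I, and treated for 3 days at five 10-fold concentrations. IC50, maximal inhibition and drug sensitivity score were derived from percent-inhibition dose–response curves fitted in the FIMM pipeline.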

[2] = tested on: UT-SCC-44; assay: as above
In short: as §1

[3] = tested on: UT-SCC-73; assay: as above
In short: as §1

[4] = tested on: UT-SCC-81; assay: as above
In short: as §1

[5] = tested on: UT-SCC-8; assay: as above
In short: as §1

[6] = tested on: UT-SCC-106A; assay: relative IC50 (midpoint of the fitted curve; maximal inhibition may be below 50%); higher = less potent
In short: as §1

[7] = tested on: UT-SCC-40; assay: as above
In short: as §1

[8] = tested on: UT-SCC-42B; assay: as above
In short: as §1

[9] = tested on: UT-SCC-44; assay: as above
In short: as §1

[10] = tested on: UT-SCC-73; assay: as above
In short: as §1

[11] = tested on: UT-SCC-24A; assay: relative IC50 (midpoint of the fitted curve; maximal inhibition may be below 50%); higher = less potent
Method: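 HNSCC cell lines (500 cells/well, 384-well) were cultured on plastic, on top of (2D) or embedded (3D) in Matrigel or human leiomyoma matrix Myogel (500 ug/mL; Myogel 3D mixed with rat collagen I). Cells were treated for 3 days with 5 ten-fold concentrations of each drug, and viability was read by CellTiter-Glo. Viability was normalised to DMSO (0% inhibition) and 100 uM benzethonium chloride (100% inhibition) controls and fitted with the FIMM DSRT pipeline to give IC50 (nM), maximal % inhibition and the drug sensitivity score (DSS). Suffixes _1/_2/_3 on drug names are replicates.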

[12] = culture condition: on top of Matrigel
[13] = culture condition: on top of Myogel
[14] = culture condition: plastic 2D (no matrix)
[15] = culture condition: embedded in Matrigel
[16] = culture condition: embedded in Myogel + collagen I

Question: Which results are given for `Cn1c(=O)n(-c2ccc(C(C)(C)C#N)cc2)c2c3cc(-c4cnc5ccccc5c4)ccc3ncc21` [Dactolisib]?
Answer: drug sensitivity score [1, 12]: 0 DSS; drug sensitivity score [1, 13]: 0 DSS; drug sensitivity score [1, 14]: 0 DSS; drug sensitivity score [2, 15]: 0 DSS; drug sensitivity score [2, 16]: 0 DSS; drug sensitivity score [2, 12]: 0 DSS; drug sensitivity score [2, 13]: 0 DSS; drug sensitivity score [2, 14]: 0.9 ± 1.6 DSS; drug sensitivity score [3, 15]: 0 DSS; drug sensitivity score [3, 16]: 0 DSS; drug sensitivity score [3, 12]: 0 DSS; drug sensitivity score [3, 13]: 0 DSS; drug sensitivity score [3, 14]: 0 DSS; drug sensitivity score [4, 15]: 3.7 ± 3.4 DSS; drug sensitivity score [4, 16]: 0 DSS; drug sensitivity score [4, 12]: 0 DSS; drug sensitivity score [4, 13]: 0 DSS; drug sensitivity score [4, 14]: 0 DSS; drug sensitivity score [5, 15]: 0 DSS; drug sensitivity score [5, 16]: 0.6 ± 0.66 DSS; drug sensitivity score [5, 12]: 0 DSS; drug sensitivity score [5, 13]: 0.133 ± 0.15 DSS; drug sensitivity score [5, 14]: 0 DSS; relative IC50 [6, 15]: > 989 nM; relative IC50 [6, 12]: > 989 nM; relative IC50 [6, 13]: > 989 nM; relative IC50 [7, 13]: > 989 nM; relative IC50 [7, 14]: > 989 nM; relative IC50 [8, 15]: > 989 nM; relative IC50 [8, 12]: > 989 nM; relative IC50 [8, 13]: > 989 nM; relative IC50 [8, 14]: > 989 nM; relative IC50 [9, 15]: > 989 nM; relative IC50 [9, 16]: > 989 nM; relative IC50 [10, 16]: > 989 nM; relative IC50 [10, 13]: > 989 nM; relative IC50 [10, 14]: > 989 nM; relative IC50 [11, 12]: > 989 nM; relative IC50 [11, 13]: > 989 nM; relative IC50 [11, 14]: > 989 nM
